Results taken from patent publication US11149031B2, “Substituted N-(3-fluoropropyl)-pyrrolidine compounds, processes for their preparation and therapeutic uses thereof” (SANOFI, priority 2016, dated 2021).
Where two headings read alike, the source gives them in different places.

What was measured:
[1] = biological target: His6-ERα298-554 WT (ERα ligand-binding domain) (Homo sapiens (Human), UniProt P03372); assay: Test A: biochemical antagonist activity, LanthaScreen TR-FRET ERα coactivator assay, WT; conditions: read-out: Antagonism WT IC50
Chain of His6-ERα298-554 WT (ERα ligand-binding domain) (P03372 298-554): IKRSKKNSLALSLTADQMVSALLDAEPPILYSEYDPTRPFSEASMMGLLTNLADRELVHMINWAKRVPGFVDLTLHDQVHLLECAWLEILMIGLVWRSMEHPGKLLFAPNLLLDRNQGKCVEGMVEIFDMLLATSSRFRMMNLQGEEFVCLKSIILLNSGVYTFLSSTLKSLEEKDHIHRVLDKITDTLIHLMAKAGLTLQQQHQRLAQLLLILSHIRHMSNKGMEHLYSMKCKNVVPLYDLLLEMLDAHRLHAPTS
How it was run: (§1)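 Compounds were added to receptor LBD (0.5 nM), terbium-labelled His6 antibody (0.5 nM), PGC1a coactivator peptide (250 nM) and estradiol at 3 nM or 10 nM. After incubating overnight at room temperature, the 520:495 nm ratio gave IC50 values by four-parameter logistic regression.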

[2] = system: MCF7 cells expressing mutant estrogen receptor Tyr 537 Ser; assay: Test B: cell proliferation/viability assay (CellTiter-Glo) on MCF7 Tyr 537 Ser mutant; type: cell-based; conditions: Homo sapiens, MCF7, 168 h, MCF7 cells expressing ER Tyr 537 Ser mutant, 7 days of compound exposure, read-out: proliferation MCF7 Y537S IC50
How it was run: (§2)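 MCF7 WT / ER mutant lines (estradiol-independent, Tyr537Ser or Asp538Gly); stripped-serum, phenol red-free MEM; 9 pt 1:5 dil, 3-0.000001 μM final; 7 d; CellTiter-Glo RLU → % viability vs untreated, background-subtracted.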

[3] = system: MCF7 cells expressing mutant estrogen receptor Asp 538 Gly; assay: Test B: cell proliferation/viability assay (CellTiter-Glo) on MCF7 Asp 538 Gly mutant; type: cell-based; conditions: Homo sapiens, MCF7, 168 h, MCF7 cells expressing ER Asp 538 Gly mutant, 7 days of compound exposure, read-out: proliferation MCF7 D538G IC50
How it was run: as §2

[4] = biological target: His6-ERα298-554 D538G mutant (ERα ligand-binding domain) (Homo sapiens (Human), UniProt P03372, D538G); assay: Test A: biochemical antagonist activity, LanthaScreen TR-FRET ERα coactivator assay, D538G mutant; conditions: read-out: Antagonism D538G IC50
Chain of His6-ERα298-554 D538G mutant (ERα ligand-binding domain) (P03372 298-554 D538G): as the sequence (P03372 298-554) above, with D241G counted along it
How it was run: as §1

[5] = biological target: ERα in MCF7 cells (Homo sapiens (Human), UniProt P03372); assay: Test C: estrogen receptor degradation activity, ERα in cell western assay in MCF7 cells; type: cell-based; conditions: for DC50: 4 hours post compound addition, ERα in cell western, read-out: Degradation IC50; for % Degradation at 3 μM: 4 hours, relative to fulvestrant
Chain of ERα in MCF7 cells (P03372 whole entry): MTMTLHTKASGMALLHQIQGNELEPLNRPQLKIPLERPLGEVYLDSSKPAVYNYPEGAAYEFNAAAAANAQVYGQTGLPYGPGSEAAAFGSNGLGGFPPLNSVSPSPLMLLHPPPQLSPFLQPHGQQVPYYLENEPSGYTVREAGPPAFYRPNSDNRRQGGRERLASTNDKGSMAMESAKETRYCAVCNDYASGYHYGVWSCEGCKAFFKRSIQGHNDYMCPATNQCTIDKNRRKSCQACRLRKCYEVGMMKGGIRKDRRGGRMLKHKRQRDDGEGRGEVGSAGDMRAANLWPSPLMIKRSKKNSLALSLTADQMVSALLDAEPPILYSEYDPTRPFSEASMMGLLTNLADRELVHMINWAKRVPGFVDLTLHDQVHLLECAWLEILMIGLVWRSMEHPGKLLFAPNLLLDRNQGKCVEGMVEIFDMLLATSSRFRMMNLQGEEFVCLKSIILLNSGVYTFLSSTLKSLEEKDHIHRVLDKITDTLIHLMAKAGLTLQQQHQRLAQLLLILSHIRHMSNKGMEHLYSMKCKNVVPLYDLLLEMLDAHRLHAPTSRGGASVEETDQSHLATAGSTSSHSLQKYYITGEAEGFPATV
How it was run: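 Cells seeded in stripped-serum medium are dosed the next day across a nine-concentration series (3 down to 0.000018 μM). Four hours later they are fixed, blocked, probed overnight with anti-ERα antibody, then labelled with an Alexa 488 secondary and a DNA dye before plate scanning.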

[6] = system: MCF7 cells (breast tumor cells) WT; assay: Test B: cell proliferation/viability assay (CellTiter-Glo) on MCF7 WT; type: cell-based; conditions: Homo sapiens, MCF7, 168 h, 7 days of compound exposure
How it was run: as §2

[7] = biological target: His6-ERα298-554 Y537S mutant (ERα ligand-binding domain) (Homo sapiens (Human), UniProt P03372, Y537S); assay: Test A: biochemical antagonist activity, LanthaScreen TR-FRET ERα coactivator assay, Y537S mutant; conditions: read-out: Antagonism Y537S IC50
Chain of His6-ERα298-554 Y537S mutant (ERα ligand-binding domain) (P03372 298-554 Y537S): as the sequence (P03372 298-554) above, with Y240S counted along it
How it was run: as §1

[8] = asterisk (*): protocol using 10 nM estradiol

Compound	IC50 [1, 8]	IC50 [2]	IC50 [3]	IC50 [4, 8]	DC50 [5]	% Degradation at 3 μM [5]	IC50 [6]	IC50 [7, 8]	IC50 ([1]; protocol with 3 nM estradiol)	IC50 ([4]; protocol with 3 nM estradiol)	IC50 ([7]; protocol with 3 nM estradiol)
CCN(CC)c1ccc(C2=C(c3ccc(O[C@H]4CCN(CCCF)C4)cc3)c3ccc(O)cc3SC2)c(F)c1 [Example 74, 3-[4-(diethylamino)-2-fluoro-phenyl]-4-[4-[(3S)-1-(3-fluoropropyl)pyrrolidin-3-yl]oxyphenyl]-2H-thiochromen-7-ol]	322 nM	173 nM	16 nM	> 4000 nM	4 nM	83%	12 nM	2380 nM			
CC(C)(C)c1ccc(C2=C(c3ccc(O[C@H]4CCN(CCCF)C4)cc3)c3ccc(O)cc3SC2)c(F)n1 [Example 75, 3-(6-tert-butyl-2-fluoro-3-pyridyl)-4-[4-[(3S)-1-(3-fluoropropyl)pyrrolidin-3-yl]oxyphenyl]-2H-thiochromen-7-ol]	2490 nM	> 999 nM	74 nM	> 4000 nM	27 nM	92%	63 nM	> 4000 nM			
CCOc1ccc(C2=C(c3cnc(O[C@H]4CCN(CCCF)C4)nc3)c3ccc(O)cc3SC2)c(F)n1 [Example 76, 3-(6-ethoxy-2-fluoro-3-pyridyl)-4-[2-[(3S)-1-(3-fluoropropyl)pyrrolidin-3-yl]oxypyrimidin-5-yl]-2H-thiochromen-7-ol]	4 nM	6 nM	1 nM	100 nM	0.6 nM	88%	0.6 nM	61 nM			
Cc1ccc(C2=C(c3cnc(O[C@H]4CCN(CCCF)C4)nc3)c3ccc(O)cc3SC2)c(F)c1 [Example 77, 3-(2-fluoro-4-methyl-phenyl)-4-[2-[(3S)-1-(3-fluoropropyl)pyrrolidin-3-yl]oxypyrimidin-5-yl]-2H-thiochromen-7-ol]	16 nM	29 nM	5 nM	323 nM	1 nM	91%	2 nM	197 nM			
Cc1ccc(C2=C(c3ccc(O[C@H]4CCN(CCCF)C4)nc3)c3ccc(O)cc3SC2)c(F)c1 [Example 78, 3-(2-fluoro-4-methyl-phenyl)-4-[6-[(3S)-1-(3-fluoropropyl)pyrrolidin-3-yl]oxy-3-pyridyl]-2H-thiochromen-7-ol]	1 nM	4 nM	0.9 nM	29 nM	0.2 nM	88%	0.3 nM	15 nM			
CCOc1ccc(C2=C(c3ccc(O[C@H]4CCN(CCCF)C4)nc3)c3ccc(O)cc3SC2)c(F)n1 [Example 79, 3-(6-ethoxy-2-fluoro-3-pyridyl)-4-[6-[(3S)-1-(3-fluoropropyl)pyrrolidin-3-yl]oxy-3-pyridyl]-2H-thiochromen-7-ol]	0.5 nM	0.8 nM	5 nM	6 nM	0.2 nM	89%	0.3 nM	5 nM			
Oc1ccc2c(c1)SCC(c1ccc(OC(F)(F)F)cc1)=C2c1ccc(O[C@H]2CCN(CCCF)C2)nc1 [Example 80, 4-[6-[(3S)-1-(3-fluoropropyl)pyrrolidin-3-yl]oxy-3-pyridyl]-3-[4-(trifluoromethoxy)phenyl]-2H-thiochromen-7-ol]	12 nM	3 nM	0.4 nM	283 nM	0.2 nM	89%	0.3 nM	154 nM			
Oc1ccc2c(c1)OCC(c1ccc(Cl)cc1Cl)=C2c1ccc(O[C@H]2CCN(CCCF)C2)cc1 [Example 81, 3-(2,4-dichlorophenyl)-4-[4-[(3S)-1-(3-fluoropropyl)pyrrolidin-3-yl]oxyphenyl]-2H-chromen-7-ol]	520 nM	17 nM	3.5 nM	> 4000 nM	7 nM	77%	18 nM	> 4000 nM			
Oc1ccc2c(c1)OCC(c1ccc(F)cc1Cl)=C2c1ccc(O[C@H]2CCN(CCCF)C2)cc1 [Example 82, 3-(2-chloro-4-fluoro-phenyl)-4-[4-[(3S)-1-(3-fluoropropyl)pyrrolidin-3-yl]oxyphenyl]-2H-chromen-7-ol]	297 nM	18 nM	1 nM	> 4000 nM	7 nM	86%	15 nM	2290 nM			
Oc1ccc(C2=C(c3ccc(O[C@H]4CCN(CCCF)C4)cc3)c3ccc(O)cc3OC2)cc1 [Example 83, 4-[4-[(3S)-1-(3-fluoropropyl)pyrrolidin-3-yl]oxyphenyl]-3-(4-hydroxyphenyl)-2H-chromen-7-ol]		18 nM	13 nM		2 nM	75%	2 nM		81 nM	1320 nM	1160 nM
Oc1ccc2c(c1)C(c1ccc(N[C@H]3CCN(CCCF)C3)cc1)=C(c1ccc(F)cc1Cl)CC2 [Example 84, 7-(2-chloro-4-fluoro-phenyl)-8-[4-[[(3S)-1-(3-fluoropropyl)pyrrolidin-3-yl]amino]phenyl]-5,6-dihydronaphthalen-2-ol]		6 nM	2 nM		2 nM	78%	0.4 nM		30 nM	1750 nM	958 nM
Oc1ccc2c(c1)CCCC(c1ccc(Cl)cc1Cl)=C2c1ccc(N[C@H]2CCN(CCCF)C2)cc1 [Example 85, 6-(2,4-dichlorophenyl)-5-[4-[[(3S)-1-(3-fluoropropyl)pyrrolidin-3-yl]amino]phenyl]-8,9-dihydro-7H-benzo[7]annulen-2-ol]	1 nM	7 nM	0.7 nM	21 nM	1 nM	86%	0.4 nM	15 nM			
CCOc1ccc(C2=C(c3ccc(N[C@H]4CCN(CCCF)C4)cc3)c3ccc(O)cc3CCC2)c(F)n1 [Example 86, 6-(6-ethoxy-2-fluoro-3-pyridyl)-5-[4-[[(3S)-1-(3-fluoropropyl)pyrrolidin-3-yl]amino]phenyl]-8,9-dihydro-7H-benzo[7]annulen-2-ol]	0.5 nM	1 nM	0.2 nM	7 nM	0.5 nM	95%	0.2 nM	5 nM			
Oc1ccc2c(c1)CCCC(c1ccc(OC(F)(F)F)cc1)=C2c1ccc(N[C@H]2CCN(CCCF)C2)cc1 [Example 87, 5-[4-[[(3S)-1-(3-fluoropropyl)pyrrolidin-3-yl]amino]phenyl]-6-[4-(trifluoromethoxy)phenyl]-8,9-dihydro-7H-benzo[7]annulen-2-ol]	23 nM	3 nM	1 nM	568 nM	0.4 nM	83%	0.2 nM	294 nM			
Oc1ccc2c(c1)CCCC(c1ccc(OC(F)(F)F)cc1F)=C2c1ccc(N[C@H]2CCN(CCCF)C2)cc1 [Example 88, 5-[4-[[(3S)-1-(3-fluoropropyl)pyrrolidin-3-yl]amino]phenyl]-6-[2-fluoro-4-(trifluoromethoxy)phenyl]-8,9-dihydro-7H-benzo[7]annulen-2-ol]	12 nM	3 nM	0.6 nM	293 nM	0.2 nM	88%	0.3 nM	159 nM			
CC(C)(C)c1ccc(C2=C(c3ccc(N[C@H]4CCN(CCCF)C4)cc3)c3ccc(O)cc3CCC2)cc1 [Example 89, 6-(4-tert-butylphenyl)-5-[4-[[(3S)-1-(3-fluoropropyl)pyrrolidin-3-yl]amino]phenyl]-8,9-dihydro-7H-benzo[7]annulen-2-ol]	27 nM	5 nM	1 nM	726 nM	1 nM	91%	0.4 nM	423 nM			
